Data taken from patent publication US20160122340A1, “HISTONE DEACETYLASE INHIBITORS BASED ON DERIVATIVES OF TRICYCLIC POLYHYDROACRIDINE AND ANALOGS POSSESSING FUSED SATURATED FIVE-AND-SEVEN-MEMBERED RINGS” (QUIMATRYX, S.L., priority 2013, published 2016).
Where two headings read alike, the source gives them in different places.

Experiments:
[1] = tested on: T1, Nuclear Extract from HeLa Cells; experiment: HeLa nuclear extract HDAC activity inhibition; format: biochemical, human
T1 construct: 25 ng/μl Nuclear Extract from HeLa Cells: Prepared by high salt extraction of HeLa nuclei (human cervical cancer cell line)
Procedure: (§1) In Vitro Inhibitory Activity of Histone Deacetylase: Human Isoforms HDAC1, 2, 3, 4, 5, 6, 7, 8, 9, 10 and 11 and HeLa Cell Line Nuclear Extract (IC50 Data)
(§2) All HDAC assays were performed using acetylated AMC-labeled peptide substrate: • Substrate for isoforms HDAC1, 2, 3, 6, 10, 11 and HeLa nuclear extract assays: Acetylated fluorogenic peptide from p53 residues 379-382 (RHKKAc). • Substrate for isoforms HDAC 4, 5, 7, 9: Fluorogenic Boc-L-Lys(ε-trifluoroacetyl)-AMC. • Substrate for HDAC8 assays: Acetylated fluorogenic peptide from p53 residues 379-382 (RHKAcKAc).
[…] The reactions were carried out in a 96-well microplate for fluorometry in a 50 μl reaction volume. After the deacetylation reaction, Fluor-de-Lys-Developer (BioMol Cat. # KI-105) was added to each well to digest the deacetylated substrate, thus producing the fluorescent signal. The reaction was allowed to develop for 45 minutes at 30° C. with 5% CO2; then the fluorescent signal was measured with an excitation wavelength at 360 nm and an emission wavelength at 460 nm in a microplate-reading fluorometer (GeminiXS; Molecular Devices, Sunnyvale, Calif.). A curve of Deacetylated Standard (Biomol, Cat. # KI-142; made from 100 μM with 1:2 dilution and 10-doses, 6 μl) allowed the conversion of fluorescent signal into micromoles of deacetylated product. All experiments were performed in triplicate. IC50 was calculated by fitting the experimental data to a dose-response curve. DMSO was used as negative control; Trichostatin A (Biomol Cat. # GR-309) was used as positive control inhibitor.

Human HDAC1 [2] = molecular target: T2, Human HDAC1 (Homo sapiens, UniProt Q13547); experiment: In vitro HDAC1 inhibition, fluorogenic peptide substrate; format: biochemical; conditions: No preincubation; read-out: IC50 (μM) HDAC-1
T2 construct: Full length with C-terminal GST tag, MW=79.9 kDa; GST (C); purchased BioMol SE-456; host or cells: baculovirus / Sf9 cells
T2 sequence (Q13547 whole entry): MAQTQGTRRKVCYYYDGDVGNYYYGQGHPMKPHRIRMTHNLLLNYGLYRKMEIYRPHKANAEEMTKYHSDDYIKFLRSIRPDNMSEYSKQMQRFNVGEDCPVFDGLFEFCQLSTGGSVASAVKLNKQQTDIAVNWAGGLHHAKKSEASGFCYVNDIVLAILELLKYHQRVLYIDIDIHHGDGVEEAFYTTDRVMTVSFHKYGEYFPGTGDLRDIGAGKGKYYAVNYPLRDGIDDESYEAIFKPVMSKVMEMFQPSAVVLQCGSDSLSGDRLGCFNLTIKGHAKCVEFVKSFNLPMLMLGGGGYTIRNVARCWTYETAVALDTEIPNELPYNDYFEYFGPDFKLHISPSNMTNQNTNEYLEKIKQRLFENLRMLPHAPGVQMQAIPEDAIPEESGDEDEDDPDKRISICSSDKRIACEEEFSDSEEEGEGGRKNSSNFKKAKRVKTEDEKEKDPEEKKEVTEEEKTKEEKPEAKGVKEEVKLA
Procedure: as §1, §2
(§3) 50 μM of substrate peptide (see ‘substrate peptides’ section above) and an optimal concentration of the corresponding enzyme (see ‘enzymes’ section above) in the assay buffer and 1% final concentration of DMSO were incubated in the presence of gradient concentrations of inhibitors (10-dose IC50 mode with 3-fold serial dilution) at 30° C. for 2 h. The reactions were carried out in a 96-well microplate for fluorometry in a 50 μl reaction volume. After the deacetylation reaction, Fluor-de-Lys-Developer (BioMol Cat. # KI-105) was added to each well to digest the deacetylated substrate, thus producing the fluorescent signal. The reaction was allowed to develop for 45 minutes at 30° C. with 5% CO2; then the fluorescent signal was measured with an excitation wavelength at 360 nm and an emission wavelength at 460 nm in a microplate-reading fluorometer (GeminiXS; Molecular Devices, Sunnyvale, Calif.). A curve of Deacetylated Standard (Biomol, Cat. # KI-142; made from 100 μM with 1:2 dilution and 10-doses, 6 μl) allowed the conversion of fluorescent signal into micromoles of deacetylated product. All experiments were performed in triplicate. IC50 was calculated by fitting the experimental data to a dose-response curve. DMSO was used as negative control; Trichostatin A (Biomol Cat. # GR-309) was used as positive control inhibitor.

Human HDAC2 = molecular target: T3, Human HDAC2 (Homo sapiens, UniProt Q92769); experiment: In vitro HDAC2 inhibition, fluorogenic peptide substrate; format: biochemical; conditions: read-out: IC50 (μM) HDAC-2
T3 construct: Full length with C-terminal His tag, MW=60 kDa; His (C); purchased BioMol SE-500; host or cells: baculovirus / Sf9 cells
T3 sequence (Q92769 whole entry): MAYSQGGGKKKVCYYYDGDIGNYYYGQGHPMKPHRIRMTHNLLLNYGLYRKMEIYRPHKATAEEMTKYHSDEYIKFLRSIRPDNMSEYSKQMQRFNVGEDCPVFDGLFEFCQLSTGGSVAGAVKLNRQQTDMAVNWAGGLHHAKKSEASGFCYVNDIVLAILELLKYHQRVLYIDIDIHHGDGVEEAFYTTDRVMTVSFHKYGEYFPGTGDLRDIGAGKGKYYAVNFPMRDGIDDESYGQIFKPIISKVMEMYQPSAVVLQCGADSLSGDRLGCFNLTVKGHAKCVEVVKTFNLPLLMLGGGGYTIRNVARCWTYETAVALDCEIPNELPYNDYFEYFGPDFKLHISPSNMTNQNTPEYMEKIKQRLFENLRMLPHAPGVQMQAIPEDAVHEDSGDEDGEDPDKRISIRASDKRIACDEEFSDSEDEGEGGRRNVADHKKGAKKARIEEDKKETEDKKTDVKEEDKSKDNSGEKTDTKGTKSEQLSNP
Procedure: as §1, §2, §3

Human HDAC6 = molecular target: T4, Human HDAC6 (Homo sapiens, UniProt Q9UBN7); experiment: In vitro HDAC6 inhibition, fluorogenic peptide substrate; format: biochemical; conditions: No preincubation; read-out: IC50 (μM) HDAC-6
T4 construct: Full length with N-terminal GST tag, MW=159 kDa; GST (N); purchased BioMol SE-508; host or cells: baculovirus / Sf9 cells
T4 sequence (Q9UBN7 1-1215): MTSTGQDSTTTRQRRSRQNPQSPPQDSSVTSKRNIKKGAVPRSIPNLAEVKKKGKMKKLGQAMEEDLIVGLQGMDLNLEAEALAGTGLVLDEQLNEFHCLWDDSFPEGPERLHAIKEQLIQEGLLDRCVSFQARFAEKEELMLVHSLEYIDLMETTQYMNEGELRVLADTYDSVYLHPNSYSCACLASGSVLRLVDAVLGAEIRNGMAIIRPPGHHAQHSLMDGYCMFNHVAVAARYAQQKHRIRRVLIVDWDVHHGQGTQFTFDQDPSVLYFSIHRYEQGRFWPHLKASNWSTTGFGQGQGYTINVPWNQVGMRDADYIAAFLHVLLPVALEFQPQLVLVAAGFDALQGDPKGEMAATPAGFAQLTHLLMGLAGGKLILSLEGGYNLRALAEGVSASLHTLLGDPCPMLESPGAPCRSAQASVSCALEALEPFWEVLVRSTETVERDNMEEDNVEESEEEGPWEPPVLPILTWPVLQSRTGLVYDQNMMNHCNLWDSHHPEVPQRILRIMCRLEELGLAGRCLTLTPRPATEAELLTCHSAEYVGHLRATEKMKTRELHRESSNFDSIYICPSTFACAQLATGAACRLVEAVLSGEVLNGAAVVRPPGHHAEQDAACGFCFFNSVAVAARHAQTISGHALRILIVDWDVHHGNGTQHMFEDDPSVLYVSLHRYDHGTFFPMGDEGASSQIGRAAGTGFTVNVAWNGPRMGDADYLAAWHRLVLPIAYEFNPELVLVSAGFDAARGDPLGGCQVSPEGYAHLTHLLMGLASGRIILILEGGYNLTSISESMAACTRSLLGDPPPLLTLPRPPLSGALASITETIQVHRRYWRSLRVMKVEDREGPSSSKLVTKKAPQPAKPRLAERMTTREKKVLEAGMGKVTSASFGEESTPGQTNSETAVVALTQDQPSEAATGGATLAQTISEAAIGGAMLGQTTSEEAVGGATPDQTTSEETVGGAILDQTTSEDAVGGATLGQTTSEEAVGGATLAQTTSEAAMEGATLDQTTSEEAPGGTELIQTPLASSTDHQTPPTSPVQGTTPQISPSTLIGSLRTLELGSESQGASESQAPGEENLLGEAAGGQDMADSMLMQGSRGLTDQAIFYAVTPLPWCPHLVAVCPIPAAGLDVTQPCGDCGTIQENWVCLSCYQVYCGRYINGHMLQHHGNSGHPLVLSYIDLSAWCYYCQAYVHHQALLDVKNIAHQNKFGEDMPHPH
Procedure: as §1, §2, §3

Human HDAC1 [3] = molecular target: T2, Human HDAC1; experiment: In vitro HDAC1 inhibition, fluorogenic peptide substrate; format: biochemical; conditions: 4 h preincubation; read-out: IC50 (μM) HDAC-1

melting point	IC50 [1]	IC50 (Human HDAC1 [2])	IC50 (Human HDAC2; No preincubation)	IC50 (Human HDAC6)	IC50 (Human HDAC2; 4 h preincubation)	IC50 (Human HDAC1 [3])	IC50 ([1]; 4 h preincubation)	IC50 ([1]; No preincubation)	SMILES
73 °C	–	–	–	–	–	–	–	–	O=C(CCCCCCNc1c2c(nc3c(O)cccc13)CCCC2)NO [Example 6, N-hydroxy-7-[(5-hydroxy-1,2,3,4-tetrahydroacridin-9-yl)amino]heptanamide]
204 to 205 °C	0.9 µM	–	–	–	–	–	–	–	O=C(NO)c1ccc(CNc2c3c(nc4ccccc24)CCCC3)cc1 [Example 9, N-hydroxy-4-{[(1,2,3,4-tetrahydroacridin-9-yl)amino]methyl}benzamide]
204 to 205 °C	–	57.3 µM	62.9 µM	> 50 µM	54.3 µM	> 50 µM	–	–	Cc1ccc(N)c(NC(=O)CCCCCCNc2c3c(nc4ccccc24)CCCC3)c1 [Example 13, N-(2-amino-5-methylphenyl)-7-((1,2,3,4-tetrahydroacridin-9-yl)amino)heptanamide]
75 to 76 °C	–	> 50 µM	> 50 µM	–	> 50 µM	> 50 µM	> 50 µM	> 50 µM	CC(C)(C)c1ccc(N)c(NC(=O)CCCCCCNc2c3c(nc4ccccc24)CCCC3)c1 [Example 14, N-[2-amino-5-(tert-butyl)phenyl]-7-[(1,2,3,4-tetrahydroacridin-9-yl)amino]heptanamide]
101 to 102 °C	–	1.26 µM	1.7 µM	13.2 µM	0.079 µM	1.48 µM	3.99 µM	4.68 µM	Nc1ccc(-c2ccccc2)cc1NC(=O)CCCCCCNc1c2c(nc3ccccc13)CCCC2 [Example 15, N-(4-amino-[1,1′-biphenyl]-3-yl)-7-[(1,2,3,4-tetrahydroacridin-9-yl)amino]heptanamide]
75 to 76 °C	–	–	–	–	–	–	–	–	Nc1ccc(-c2ccccc2)cc1NC(=O)CCCCCNc1c2c(nc3ccccc13)CCCC2 [Example 16, N-(4-Amino-[1,1′-biphenyl]-3-yl)-6-[(1,2,3,4-tetrahydroacridin-9-yl)amino]hexanamide]
53 to 54 °C	–	250 µM	188 µM	–	76 µM	118 µM	73.6 µM	84.1 µM	Cc1cccc(-c2ccc(N)c(NC(=O)CCCCCCNc3c4c(nc5ccccc35)CCCC4)c2)c1 [Example 17, N-(4-amino-3′-methyl-[1,1′-biphenyl]-3-yl)-7-[(1,2,3,4-tetrahydroacridin-9-yl)amino]heptanamide]
55 to 56 °C	–	46.7 µM	> 50 µM	–	65.9 µM	48.1 µM	25.5 µM	429 µM	CC(C)(C)c1ccc(-c2ccc(N)c(NC(=O)CCCCCCNc3c4c(nc5ccccc35)CCCC4)c2)cc1 [Example 18, N-{4-amino-4′-(tert-butyl)-[1,1′-biphenyl]-3-yl}-7-[(1,2,3,4-tetrahydroacridin-9-yl)amino]heptanamide]
100 to 101 °C	–	> 50 µM	> 50 µM	–	72.7 µM	139 µM	39.3 µM	17.7 µM	Nc1ccc(-c2ccc3ccccc3c2)cc1NC(=O)CCCCCCNc1c2c(nc3ccccc13)CCCC2 [Example 19, N-[2-amino-5-(naphthalen-2-yl)phenyl]-7-[(1,2,3,4-tetrahydroacridin-9-yl)amino]heptanamide]
49 to 50 °C	–	594 µM	> 50 µM	–	> 50 µM	> 50 µM	109 µM	> 50 µM	Nc1ncc(-c2ccccc2)cc1NC(=O)CCCCCCNc1c2c(nc3ccccc13)CCCC2 [Example 20, N-(2-amino-5-phenylpyridin-3-yl)-7-[(1,2,3,4-tetrahydroacridin-9-yl)amino]heptanamide]
–	–	3.97 µM	3.37 µM	–	2.79 µM	8.55 µM	30.7 µM	78.1 µM	Nc1ccc(-c2cccnc2)cc1NC(=O)CCCCCCNc1c2c(nc3ccccc13)CCCC2 [Example 21, N-[2-amino-5-(pyridin-3-yl)phenyl]-7-[(1,2,3,4-tetrahydroacridin-9-yl)amino]heptanamide]

SMILES	melting point	IC50 [1]	IC50 (Human HDAC1 [2])	IC50 (Human HDAC2; No preincubation)	IC50 (Human HDAC6)	IC50 (Human HDAC2; 4 h preincubation)	IC50 (Human HDAC1 [3])	IC50 ([1]; 4 h preincubation)	IC50 ([1]; No preincubation)
Cc1ccc(NC(=O)CCCCCCNc2c3c(nc4ccccc24)CCCC3)c(N)c1 [Example 12, N-(2-amino-4-methylphenyl)-7-[(1,2,3,4-tetrahydroacridin-9-yl)amino]heptanamide]	63 to 64 °C	–	> 50 µM	> 50 µM	> 50 µM	–	–	–	–
